Measurements: patent US11116778B2, “Prodrugs of ALOX-15 inhibitors and methods of using the same” (EMPIRICO INC., priority 2019, dated 2021)

System: POSTN mRNA
Test: POSTN mRNA by RT-qPCR in human nasal epithelial primary cells
Assay type: cell-based
Conditions: 5 μM or 1 μM, 3 x 24 hours with 20 ng/mL IL-13
Experimental: Human nasal epithelial primary cells (HNEpC) (PromoCell GmbH, Heidelberg, Germany) were cultured according to the manufacturer in provided Primary Cell media in 24 well plates at a density of 25,000 cells per well. Cells were treated with 5 μM or 1 μM of compound 5 or vehicle only (water) in media containing 20 ng/mL IL-13 for 24 hours in a 37° C. cell culture incubator. The following day, media was replaced and fresh media containing 20 ng/mL IL-13 and compound 5 or vehicle was added to each well, then incubated again for 24 hours in a 37° C. cell culture incubator. The process was repeated once more for a 24-hour period.
ALOX15 and POSTN mRNA levels were measured by RT-qPCR. […] The level of ALOX15 mRNA from each sample was measured in triplicate by real-time qPCR on an Applied Biosystems 7500 Fast Real-Time PCR machine using the TaqMan Gene Expression Assay for human ALOX15 (ThermoFisher, assay #Hs00993765_g1). The level of PPIA mRNA was measured in biplex reactions using TaqMan Gene Expression Assay (ThermoFisher, assay #Hs99999904_ml) and used to determine relative ALOX15 mRNA levels in each well using the delta-delta Ct method. […] Relative POSTN mRNA levels were measured as above using TaqMan Gene Expression Assay specific for human POSTN mRNA (ThermoFisher, assay #Hs00170815_m1). […]

## O=C(Nc1ccc(F)cc1Cl)c1nn(COP(=O)(O)O)c(Cl)c1Cl [compound 5, (4,5-dichloro-3-((2-chloro-4-fluorophenyl)carbamoyl)-1H-pyrazol-1-yl)methyl dihydrogen phosphate]
  relative level of POSTN mRNA versus vehicle (FIG. 7): lower
